In patent US20230192700A1, “PYRAZOLOPYRAZINES ACTING ON CANCERS VIA INHIBITION OF CDK12” (Bayer Aktiengesellschaft, priority 2020, published 2023) one finds IC50 data, which are given here for 24 compounds.

One experiment deals with T1, CDK9/CyclinT1 (Homo sapiens, UniProt P50750).
T1 construct: Recombinant full-length His-tagged human CDK9 and CycT1; His-tag; purchased Life Technologies PV4131; host or cells: insect cells
Briefly: CDK9/CycT1 high ATP kinase assay (TR-FRET). In kind it is biochemical. To be noted: 2 mM ATP (high ATP); median; read-out: CDK9/CyclinT1, 2 mM ATP (high ATP) IC50 - [mol/l] (median). The method in brief: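 Full-length His-tagged human CDK9/CycT1 (insect cell) at ~0.5 µg/mL, preincubated with compound 15 min at 22 °C in Tris pH 8.0 buffer, then reacted 25 min with 2 mM ATP and 0.75 µM biotinylated peptide (final). Phospho-substrate detected by TR-FRET (anti-RB pSer807/811, Eu/XL665), 665/620 nm ratio normalised to no-inhibitor and no-enzyme controls.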

The subject of experiment [1] is MDA-MB-231 human breast cancer cells. Briefly: Proliferation assay MDA-MB-231 (crystal violet). The class given is cell-based. To be noted: Homo sapiens, MDA-MB-231, 96 h, MDA-MB-231 cells, 4 days, median, read-out: Prolif-MDA MB231 IC50 - [mol/l] (median). The protocol: 4. Proliferation assay: MDA-MB-231, CAL-120
Human tumour cells were originally obtained from the American Type Culture Collection (ATCC), or from the Deutsche Sammlung von Mikroorganismen and Zellkulturen (DSMZ, German Collection of Microorganisms and Cell Cultures). Cultivated tumour cells (CAL-120, human breast adenocarcinoma cells, DSMZ ACC-459; MDA-M B-231, human breast cancer cells, ATCC HTB-26) were plated at a density of 4,000 cells/well in a 96-well multititer plate in 200 microL of their respective growth medium supplemented 10% fetal calf serum. After 24 hours, the cells of one plate (zero-point plate) were stained with crystal violet (see below), while the medium of the other plates was supplemented with the test substances in various concentrations (0 micromol/L, as well as in the range of 0.01-10 micromol/L; the final concentration of the solvent dimethyl sulfoxide was adjusted to 0.1%) using a Tecan HP D300 Digital Dispenser. The cells were incubated for 4 days in the presence of test substances. Cell proliferation was determined by staining the cells with crystal violet: the cells were fixed by adding 20 microL/measuring point of an 11% glutaric aldehyde solution for 15 minutes at room temperature. After three washing cycles of the fixed cells with water, the plates were dried at room temperature. The cells were stained by adding 100 microL/measuring point of a 0.1% crystal violet solution (pH 3.0). After three washing cycles of the stained cells with water, the plates were dried at room temperature. The dye was dissolved by adding 100 microL/measuring point of a 10% acetic acid solution. The extinction was determined by photometry at a wavelength of 595 nm. The change of cell number, in percent, was calculated by normalization of the measured values to the extinction values of the zero-point plate(=0%) and the extinction of the untreated (0 μM) cells(=100%). The IC50 values (inhibitory concentration at 50% of maximal effect) were determined by means of a 4 parameter fit.

pIC50: −log10 of the molar value.

T1 sequence (P50750 whole entry): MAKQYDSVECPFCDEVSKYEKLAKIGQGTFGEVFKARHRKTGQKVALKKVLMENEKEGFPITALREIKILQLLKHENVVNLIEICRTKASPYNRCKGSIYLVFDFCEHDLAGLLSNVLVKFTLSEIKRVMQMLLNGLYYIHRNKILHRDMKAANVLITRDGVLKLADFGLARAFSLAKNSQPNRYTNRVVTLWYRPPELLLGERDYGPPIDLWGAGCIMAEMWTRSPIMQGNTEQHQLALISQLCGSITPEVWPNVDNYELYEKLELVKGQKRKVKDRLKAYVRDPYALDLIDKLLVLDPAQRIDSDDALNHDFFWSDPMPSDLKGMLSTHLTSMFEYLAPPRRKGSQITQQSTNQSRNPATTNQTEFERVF
T1 sequence (O60563 whole entry partner): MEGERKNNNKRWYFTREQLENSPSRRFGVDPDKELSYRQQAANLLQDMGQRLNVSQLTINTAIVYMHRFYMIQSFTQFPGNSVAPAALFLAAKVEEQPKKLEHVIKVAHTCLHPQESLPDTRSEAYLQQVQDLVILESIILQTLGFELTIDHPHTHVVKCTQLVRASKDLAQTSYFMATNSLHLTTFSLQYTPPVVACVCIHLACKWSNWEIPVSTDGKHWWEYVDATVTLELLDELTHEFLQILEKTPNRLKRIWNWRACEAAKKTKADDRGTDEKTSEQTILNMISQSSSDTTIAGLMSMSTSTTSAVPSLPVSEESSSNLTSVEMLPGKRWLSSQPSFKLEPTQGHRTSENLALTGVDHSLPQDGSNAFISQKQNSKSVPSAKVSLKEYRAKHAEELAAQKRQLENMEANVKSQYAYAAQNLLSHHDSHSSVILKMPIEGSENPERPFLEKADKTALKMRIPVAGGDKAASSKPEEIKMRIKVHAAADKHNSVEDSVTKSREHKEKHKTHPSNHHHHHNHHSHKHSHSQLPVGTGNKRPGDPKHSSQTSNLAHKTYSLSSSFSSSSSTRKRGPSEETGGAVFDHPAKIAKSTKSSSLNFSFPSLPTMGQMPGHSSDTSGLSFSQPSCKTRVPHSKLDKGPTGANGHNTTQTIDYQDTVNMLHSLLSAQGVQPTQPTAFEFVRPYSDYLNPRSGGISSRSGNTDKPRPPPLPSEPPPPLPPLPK

On to `CN1CCC(n2nc(NCc3nc4cc(Cl)ccc4[nH]3)c3ncc(C4CC4)nc32)CC1` [Example 22, N-[(5-chloro-1H-benzimidazol-2-yl)methyl]-6-cyclopropyl-1-(1-methylpiperidin-4-yl)-1H-pyrazolo[3,4-b]pyrazin-3-amine], for which the results for the pIC50 (at CDK9/CyclinT1; in experiment [1]) were under 4.70 and 8.10, respectively.

For the compound `Fc1cccc2[nH]c(CNc3nn(C4CCOCC4)c4nc(C5CC5)cnc34)nc12` [Example 23, 6-cyclopropyl-N-[(4-fluoro-1H-benzimidazol-2-yl)methyl]-1-(oxan-4-yl)-1H-pyrazolo[3,4-b]pyrazin-3-amine], the results for the pIC50 (at CDK9/CyclinT1; in experiment [1]) were under 4.70 and 7.54, respectively.

On to `COc1cccc2[nH]c(CNc3nn(C4CCOCC4)c4nc(C5CC5)cnc34)nc12` [Example 24, 6-cyclopropyl-N-[(4-methoxy-1H-benzimidazol-2-yl)methyl]-1-(oxan-4-yl)-1H-pyrazolo[3,4-b]pyrazin-3-amine], for which the pIC50 at CDK9/CyclinT1 was under 4.70; in experiment [1] it was 7.91.

Regarding `CN1CCC(n2nc(NCc3nc4cc(C(F)(F)F)ccc4[nH]3)c3ncc(C4CC4)nc32)CC1` [Example 25, 6-cyclopropyl-1-(1-methylpiperidin-4-yl)-N-{[5-(trifluoromethyl)-1H-benzimidazol-2-yl]methyl}-1H-pyrazolo[3,4-b]pyrazin-3-amine], the pIC50 was under 4.70 on CDK9/CyclinT1 and 8.29 in experiment [1].

For the compound `Cc1c(F)ccc2[nH]c(CNc3nn(C4CCN(C)CC4)c4nc(C5CC5)cnc34)nc12` [Example 26, 6-cyclopropyl-N-[(5-fluoro-4-methyl-1H-benzimidazol-2-yl)methyl]-1-(1-methylpiperidin-4-yl)-1H-pyrazolo[3,4-b]pyrazin-3-amine], the pIC50 at CDK9/CyclinT1 was under 4.70; in experiment [1], 7.65.

Regarding `Cc1ccc2[nH]c(CNc3nn(C4CCN(C)CC4)c4nc(C5CC5)cnc34)nc2c1C` [Example 28, 6-cyclopropyl-N-[(4,5-dimethyl-1H-benzimidazol-2-yl)methyl]-1-(1-methylpiperidin-4-yl)-1H-pyrazolo[3,4-b]pyrazin-3-amine], the figures for the pIC50 (on CDK9/CyclinT1; in experiment [1]) were under 4.70 and 7.70, respectively.

`CN1CCC(n2nc(NCc3nc4cc(Cl)c(F)cc4[nH]3)c3ncc(C4CC4)nc32)CC1` [Example 29, N-[(5-chloro-6-fluoro-1H-benzimidazol-2-yl)methyl]-6-cyclopropyl-1-(1-methylpiperidin-4-yl)-1H-pyrazolo[3,4-b]pyrazin-3-amine]: the pIC50 at CDK9/CyclinT1 is under 4.70; in experiment [1], 7.84.

`CN1CCC(n2nc(NCc3nc4cc(F)c(F)cc4[nH]3)c3ncc(C4CC4)nc32)CC1` [Example 30, 6-cyclopropyl-N-[(5,6-difluoro-1H-benzimidazol-2-yl)methyl]-1-(1-methylpiperidin-4-yl)-1H-pyrazolo[3,4-b]pyrazin-3-amine]: the values for the pIC50 (at CDK9/CyclinT1; in experiment [1]) were under 4.70 and 7.52, respectively.

On to `CN1CCC(n2nc(NCc3nc4c(Cl)c(F)ccc4[nH]3)c3ncc(C4CC4)nc32)CC1` [Example 31, N-[(4-chloro-5-fluoro-1H-benzimidazol-2-yl)methyl]-6-cyclopropyl-1-(1-methylpiperidin-4-yl)-1H-pyrazolo[3,4-b]pyrazin-3-amine], for which the pIC50 at CDK9/CyclinT1 was under 4.70; in experiment [1], 7.74.

`Fc1ccc2[nH]c(CNc3nn(C4CCOCC4)c4nc(C5CC5)cnc34)nc2c1F` [Example 32, 6-cyclopropyl-N-[(4,5-difluoro-1H-benzimidazol-2-yl)methyl]-1-(oxan-4-yl)-1H-pyrazolo[3,4-b]pyrazin-3-amine]: the pIC50 at CDK9/CyclinT1 was under 4.70; in experiment [1], 8.26.

For `Cc1cccc2[nH]c(CNc3nn(C4CCOCC4)c4nc(C5CC5)cnc34)nc12` [Example 33, 6-cyclopropyl-N-[(4-methyl-1H-benzimidazol-2-yl)methyl]-1-(oxan-4-yl)-1H-pyrazolo[3,4-b]pyrazin-3-amine], the pIC50 on CDK9/CyclinT1 was under 4.70; in experiment [1] it was 7.43.

Consider `FC1(F)CCC(n2nc(NCc3nc4ccccc4[nH]3)c3ncc(C4CC4)nc32)CC1` [Example 36, N-[(1H-benzimidazol-2-yl)methyl]-6-cyclopropyl-1-(4,4-difluorocyclohexyl)-1H-pyrazolo[3,4-b]pyrazin-3-amine], for which the values for the pIC50 (at CDK9/CyclinT1; in experiment [1]) were under 4.70 and 6.94, respectively.

As to `c1ccc2[nH]c(CNc3nn(C4CCCC4)c4nc(C5CC5)cnc34)nc2c1` [Example 39, N-[(1H-benzimidazol-2-yl)methyl]-1-cyclopentyl-6-cyclopropyl-1H-pyrazolo[3,4-b]pyrazin-3-amine], the pIC50 at CDK9/CyclinT1 was under 4.70; in experiment [1], 6.50.

For `O[C@H]1C[C@@H](n2nc(NCc3nc4ccccc4[nH]3)c3ncc(C4CC4)nc32)C1` [Example 40, cis-3-(3-{[(1H-benzimidazol-2-yl)methyl]amino}-6-cyclopropyl-1H-pyrazolo[3,4-b]pyrazin-1-yl)cyclobutan-1-ol], the values for the pIC50 (at CDK9/CyclinT1; in experiment [1]) were under 4.70 and 7.08, respectively.

In the case of `O[C@H]1C[C@H](n2nc(NCc3nc4ccccc4[nH]3)c3ncc(C4CC4)nc32)C1` [Example 43, trans-3-(3-{[(1H-benzimidazol-2-yl)methyl]amino}-6-cyclopropyl-1H-pyrazolo[3,4-b]pyrazin-1-yl)cyclobutan-1-ol], the pIC50 at CDK9/CyclinT1 was under 4.70; in experiment [1] it was 7.21.

`c1ccc2[nH]c(CNc3nn(C4C[C@H]5CC[C@@H](C4)O5)c4nc(C5CC5)cnc34)nc2c1` (stereo partly drawn) [Example 45, exo/endo-N-[(1H-benzimidazol-2-yl)methyl]-6-cyclopropyl-1-(8-oxabicyclo[3.2.1]octan-3-yl)-1H-pyrazolo[3,4-b]pyrazin-3-amine]: the pIC50 at CDK9/CyclinT1 was under 4.70; in experiment [1] it was 7.77.

Take `OC[C@H]1C[C@H](n2nc(NCc3nc4ccccc4[nH]3)c3ncc(C4CC4)nc32)C1` [Example 46, [trans-3-(3-{[(1H-benzimidazol-2-yl)methyl]amino}-6-cyclopropyl-1H-pyrazolo[3,4-b]pyrazin-1-yl)cyclobutyl]methanol]: the results for the pIC50 (at CDK9/CyclinT1; in experiment [1]) were under 4.70 and 7.33, respectively.

Regarding `OC[C@H]1C[C@@H](n2nc(NCc3nc4ccccc4[nH]3)c3ncc(C4CC4)nc32)C1` [Example 47, [cis-3-(3-{[(1H-benzimidazol-2-yl)methyl]amino}-6-cyclopropyl-1H-pyrazolo[3,4-b]pyrazin-1-yl)cyclobutyl]methanol], the pIC50 on CDK9/CyclinT1 is under 4.70; in experiment [1], 7.29.

Take `c1ccc2[nH]c(CNc3nn(C4CCC4)c4nc(C5CC5)cnc34)nc2c1` [Example 49, N-[(1H-benzimidazol-2-yl)methyl]-1-cyclobutyl-6-cyclopropyl-1H-pyrazolo[3,4-b]pyrazin-3-amine]: the pIC50 at CDK9/CyclinT1 is under 4.70; in experiment [1] it was 6.70.

On to `O[C@H]1CC[C@H](n2nc(NCc3nc4ccccc4[nH]3)c3ncc(C4CC4)nc32)CC1` [Example 50, trans-4-(3-{[(1H-benzimidazol-2-yl)methyl]amino}-6-cyclopropyl-1H-pyrazolo[3,4-b]pyrazin-1-yl)cyclohexan-1-ol], for which the pIC50 was under 4.70 on CDK9/CyclinT1 and 7.82 in experiment [1].

In the case of `Fc1ccc2[nH]c(CNc3nn(C4CCOCC4)c4nc(C5CC5)cnc34)nc2c1` [Example 53, 6-cyclopropyl-N-[(5-fluoro-1H-benzimidazol-2-yl)methyl]-1-(oxan-4-yl)-1H-pyrazolo[3,4-b]pyrazin-3-amine], the values for the pIC50 (at CDK9/CyclinT1; in experiment [1]) were under 4.70 and 7.63, respectively.

Regarding `OCCCn1nc(NCc2nc3ccccc3[nH]2)c2ncc(C3CC3)nc21` [Example 60, 3-(3-{[(1H-benzimidazol-2-yl)methyl]amino}-6-cyclopropyl-1H-pyrazolo[3,4-b]pyrazin-1-yl)propan-1-ol], the results for the pIC50 (at CDK9/CyclinT1; in experiment [1]) were under 4.70 and 6.63, respectively.

Turning to `COCCCn1nc(NCc2nc3ccccc3[nH]2)c2ncc(C3CC3)nc21` [Example 61, N-[(1H-benzimidazol-2-yl)methyl]-6-cyclopropyl-1-(3-methoxypropyl)-1H-pyrazolo[3,4-b]pyrazin-3-amine], the results for the pIC50 (on CDK9/CyclinT1; in experiment [1]) were under 4.70 and 6.47, respectively.

For the compound `COCCn1nc(NCc2nc3ccccc3[nH]2)c2ncc(C3CC3)nc21` [Example 65, N-[(1H-benzimidazol-2-yl)methyl]-6-cyclopropyl-1-(2-methoxyethyl)-1H-pyrazolo[3,4-b]pyrazin-3-amine], the pIC50 on CDK9/CyclinT1 is under 4.70; in experiment [1], 6.36.
